In patent US20260167619A2, “INDOLINE COMPOUNDS AND DERIVATIVES AS EGFR INHIBITORS” (BeOne Medicines I GmbH, priority 2020, published 2026):

Tests used:
BaF3-WT cells = BaF3-WT cells (Homo sapiens, UniProt P00533); assay: Cell antiproliferation assay (CellTiter-Glo), BaF3-WT; type: cell-based; details: 48 h treatment, read-out: BaF3-WT IC50
Summary of the method: (§1)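 Cells exposed 48 h to 8 doses from 5-fold serial dilution (500× DMSO stocks from 5 mM), final 0.2% DMSO. Viability by CellTiter-Glo luminescence; IC50 from four-parameter fit of percent inhibition versus concentration.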

BaF3-Del_TM_CS cells = BaF3-Del_TM_CS cells (Homo sapiens, UniProt P00533, T790M/C797S, cells depend on it, form not given); assay: Cell antiproliferation assay (CellTiter-Glo), BaF3-Del_TM_CS; type: cell-based; details: 48 h treatment, read-out: BaF3-Del_TM_CS IC50
Sequence of BaF3-Del_TM_CS cells (P00533 with tags, fused parts or gaps DEL746-750/T790M/C797S, form open): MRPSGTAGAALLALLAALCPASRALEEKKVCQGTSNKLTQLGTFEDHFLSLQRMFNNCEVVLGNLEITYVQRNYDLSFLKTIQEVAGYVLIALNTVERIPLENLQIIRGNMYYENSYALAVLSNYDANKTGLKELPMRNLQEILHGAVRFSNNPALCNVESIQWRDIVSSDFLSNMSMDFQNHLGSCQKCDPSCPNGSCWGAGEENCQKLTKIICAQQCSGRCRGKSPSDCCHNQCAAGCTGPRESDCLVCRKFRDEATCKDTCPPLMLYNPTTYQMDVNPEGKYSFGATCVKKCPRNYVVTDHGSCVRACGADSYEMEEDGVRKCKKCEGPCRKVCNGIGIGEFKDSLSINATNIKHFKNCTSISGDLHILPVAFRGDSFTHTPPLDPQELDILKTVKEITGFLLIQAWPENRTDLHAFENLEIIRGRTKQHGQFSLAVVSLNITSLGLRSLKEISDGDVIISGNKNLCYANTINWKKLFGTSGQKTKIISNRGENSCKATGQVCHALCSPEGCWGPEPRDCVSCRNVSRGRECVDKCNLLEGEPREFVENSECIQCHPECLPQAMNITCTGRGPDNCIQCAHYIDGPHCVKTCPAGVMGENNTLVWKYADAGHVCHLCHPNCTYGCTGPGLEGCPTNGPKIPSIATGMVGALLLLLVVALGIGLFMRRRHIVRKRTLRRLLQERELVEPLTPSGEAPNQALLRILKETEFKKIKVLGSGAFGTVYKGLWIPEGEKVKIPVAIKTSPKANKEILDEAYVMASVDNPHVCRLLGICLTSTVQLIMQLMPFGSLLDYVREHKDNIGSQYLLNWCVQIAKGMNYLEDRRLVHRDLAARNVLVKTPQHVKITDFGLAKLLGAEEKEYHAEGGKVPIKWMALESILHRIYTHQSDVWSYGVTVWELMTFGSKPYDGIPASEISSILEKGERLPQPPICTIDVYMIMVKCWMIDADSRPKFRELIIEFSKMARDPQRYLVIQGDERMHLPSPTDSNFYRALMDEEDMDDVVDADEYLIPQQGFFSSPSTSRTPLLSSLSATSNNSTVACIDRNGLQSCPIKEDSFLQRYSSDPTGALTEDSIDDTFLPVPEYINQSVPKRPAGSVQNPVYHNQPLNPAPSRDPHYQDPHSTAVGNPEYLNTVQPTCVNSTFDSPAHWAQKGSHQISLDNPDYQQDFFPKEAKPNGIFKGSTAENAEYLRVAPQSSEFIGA
Summary of the method: as §1

BaF3-LR_TM_CS cells = BaF3-LR_TM_CS cells (Homo sapiens, UniProt P00533, T790M/C797S/L858R, cells depend on it); assay: Cell antiproliferation assay (CellTiter-Glo), BaF3-LR_TM_CS; type: cell-based; details: 48 h treatment, read-out: BaF3-LR_TM_CS IC50
Sequence of BaF3-LR_TM_CS cells (P00533 whole entry T790M/C797S/L858R): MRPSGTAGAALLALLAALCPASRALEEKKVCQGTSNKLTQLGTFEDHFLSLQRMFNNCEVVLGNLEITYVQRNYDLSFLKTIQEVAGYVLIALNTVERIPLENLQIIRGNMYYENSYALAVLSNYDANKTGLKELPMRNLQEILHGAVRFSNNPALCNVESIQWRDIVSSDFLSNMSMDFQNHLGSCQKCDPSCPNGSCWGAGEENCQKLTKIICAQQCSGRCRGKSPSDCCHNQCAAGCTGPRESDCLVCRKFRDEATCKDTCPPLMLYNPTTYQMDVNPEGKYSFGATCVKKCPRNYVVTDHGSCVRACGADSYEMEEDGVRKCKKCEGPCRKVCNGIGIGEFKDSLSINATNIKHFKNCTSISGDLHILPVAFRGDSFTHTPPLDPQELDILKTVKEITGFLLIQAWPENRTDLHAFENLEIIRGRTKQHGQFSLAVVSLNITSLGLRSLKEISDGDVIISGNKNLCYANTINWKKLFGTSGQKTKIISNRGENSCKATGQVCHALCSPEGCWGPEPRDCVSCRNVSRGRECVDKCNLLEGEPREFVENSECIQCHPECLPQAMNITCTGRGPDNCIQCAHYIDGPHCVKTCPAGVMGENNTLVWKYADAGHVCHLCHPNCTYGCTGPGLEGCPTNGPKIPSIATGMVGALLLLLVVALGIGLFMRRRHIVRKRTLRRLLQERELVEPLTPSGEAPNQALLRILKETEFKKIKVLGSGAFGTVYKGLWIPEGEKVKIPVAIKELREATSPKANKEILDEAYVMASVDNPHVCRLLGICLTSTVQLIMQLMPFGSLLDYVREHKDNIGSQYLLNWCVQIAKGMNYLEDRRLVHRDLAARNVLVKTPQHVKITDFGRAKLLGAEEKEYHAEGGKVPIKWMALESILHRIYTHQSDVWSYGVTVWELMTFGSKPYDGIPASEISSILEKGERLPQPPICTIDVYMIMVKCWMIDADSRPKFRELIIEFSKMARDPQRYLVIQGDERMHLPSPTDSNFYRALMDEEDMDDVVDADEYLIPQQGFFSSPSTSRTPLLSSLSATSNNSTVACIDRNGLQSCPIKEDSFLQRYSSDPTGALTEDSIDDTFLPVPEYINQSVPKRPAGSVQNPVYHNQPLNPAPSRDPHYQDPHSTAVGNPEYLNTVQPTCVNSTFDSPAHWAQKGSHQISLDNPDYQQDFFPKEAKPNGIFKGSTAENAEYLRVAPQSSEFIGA
Summary of the method: as §1

[1] = biological target: EGFR(Dell9_T790M_C797S) (aa 669-1210, in house) (Homo sapiens, UniProt P00533, T790M/C797S, form not given); assay: Biochemical EGFR inhibition assay (TR-FRET), Del19/T790M/C797S mutant; details: ATP at Km, 15 min pre-incubation, 60 min reaction; read-out: Del_TM_CS (Km ATP) IC50
Sequence of EGFR(Dell9_T790M_C797S) (aa 669-1210, in house) (P00533 with tags, fused parts or gaps DEL746-750/T790M/C797S, form open): as the sequence (P00533 with tags, fused parts or gaps DEL746-750/T790M/C797S, form open) above
Summary of the method: (§2)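 Recombinant kinase pre-incubated with compound 15 min at room temperature in 50 mM HEPES pH7.5, 10 mM MgCl2, 2 mM DTT, 1 mM EGTA, 0.1% BSA, 0.01% Tween-20; reaction started with ATP at Km plus biotin-poly GT, run 60 min at RT. HTRF read (665/620 nm); IC50 from four-parameter logistic fit.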

[2] = biological target: T1, EGFR (aa668-1210, Invitrogen) (Homo sapiens, UniProt P00533); assay: Biochemical EGFR inhibition assay (TR-FRET), wild-type EGFR; details: ATP at Km, 15 min pre-incubation, 60 min reaction; read-out: WT (Km ATP) IC50
T1 construct: EGFR (aa668-1210, Invitrogen); purchased Invitrogen
Summary of the method: as §2

[3] = biological target: T2, EGFR(L858R_T790M_C797S) (aa695-end, Invitrogen) (Homo sapiens, UniProt P00533, C797S/L858R/T790M); assay: Biochemical EGFR inhibition assay (TR-FRET), L858R/T790M/C797S mutant; details: ATP at Km, 15 min pre-incubation, 60 min reaction; read-out: LR_TM_CS (Km ATP) IC50
T2 construct: purchased Invitrogen
Summary of the method: as §2

Sequence of BaF3-WT cells (P00533 whole entry, change not shown): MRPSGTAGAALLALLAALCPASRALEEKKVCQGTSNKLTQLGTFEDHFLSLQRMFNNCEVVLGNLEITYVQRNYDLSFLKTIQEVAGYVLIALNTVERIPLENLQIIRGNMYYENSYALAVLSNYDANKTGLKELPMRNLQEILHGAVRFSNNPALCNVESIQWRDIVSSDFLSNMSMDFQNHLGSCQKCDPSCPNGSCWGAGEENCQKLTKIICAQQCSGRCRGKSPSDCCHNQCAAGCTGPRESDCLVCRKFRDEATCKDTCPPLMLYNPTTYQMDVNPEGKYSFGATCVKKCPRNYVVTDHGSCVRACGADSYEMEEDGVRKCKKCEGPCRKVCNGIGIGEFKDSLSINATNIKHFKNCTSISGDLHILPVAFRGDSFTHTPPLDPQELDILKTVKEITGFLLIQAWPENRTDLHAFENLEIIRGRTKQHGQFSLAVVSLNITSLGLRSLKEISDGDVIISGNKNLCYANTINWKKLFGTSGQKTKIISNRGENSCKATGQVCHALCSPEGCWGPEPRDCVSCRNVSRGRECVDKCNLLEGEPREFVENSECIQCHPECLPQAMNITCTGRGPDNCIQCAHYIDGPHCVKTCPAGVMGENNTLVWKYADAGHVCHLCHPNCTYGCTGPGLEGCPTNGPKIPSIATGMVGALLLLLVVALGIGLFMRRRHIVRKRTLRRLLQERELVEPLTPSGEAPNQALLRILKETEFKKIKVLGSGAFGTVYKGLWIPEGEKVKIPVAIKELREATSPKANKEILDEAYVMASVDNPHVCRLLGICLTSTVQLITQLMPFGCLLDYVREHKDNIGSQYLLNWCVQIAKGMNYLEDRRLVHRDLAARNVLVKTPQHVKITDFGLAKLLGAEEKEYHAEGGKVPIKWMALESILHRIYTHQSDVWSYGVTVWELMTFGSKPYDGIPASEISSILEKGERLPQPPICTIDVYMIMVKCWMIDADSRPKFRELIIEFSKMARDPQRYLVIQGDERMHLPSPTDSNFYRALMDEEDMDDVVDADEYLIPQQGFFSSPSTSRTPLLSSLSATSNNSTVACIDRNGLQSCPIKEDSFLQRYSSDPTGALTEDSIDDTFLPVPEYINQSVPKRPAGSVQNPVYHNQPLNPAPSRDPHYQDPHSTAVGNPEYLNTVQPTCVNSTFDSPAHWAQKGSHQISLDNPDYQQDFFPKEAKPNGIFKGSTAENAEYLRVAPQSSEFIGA

Structure (SMILES) | GI50 (BaF3-WT cells) | GI50 (BaF3-Del_TM_CS cells) | GI50 (BaF3-LR_TM_CS cells) | IC50 [1] | IC50 [2] | IC50 [3]
COc1cc(N2CCN(C)[C@@H](C)C2)c(C)cc1Nc1nc(Nc2cccc3c2N(S(C)(=O)=O)CC3)c2cc[nH]c2n1 [Example 105, (S)—N^2-(4-(3,4-dimethylpiperazin-1-yl)-2-methoxy-5-methylphenyl)-N^4-(1-(methylsulfonyl)indolin-7-yl)-7H-pyrrolo[2,3-d]pyrimidine-2,4-diamine] | 2090 nM | 87 nM | 240 nM | 10 nM | 455 nM | 5.3 nM
CN(C)C1CCN(c2ccc(Nc3ncc(Cl)c(Nc4cccc5c4N(S(C)(=O)=O)CC5)n3)c3c2OCO3)CC1 [Example 51, 5-chloro-N2-(7-(4-(dimethylamino)piperidin-1-yl)benzo[d][1,3]dioxol-4-yl)-N4-(1-(methylsulfonyl)indolin-7-yl)pyrimidine-2,4-diamine] | 235 nM | 10.1 nM | 35.9 nM | 0.19 nM | 4.2 nM | 0.8 nM
COc1cc(N2CCC(N3CCN(C)CC3)CC2)ccc1Nc1nc(Nc2cccc3c2N(S(C)(=O)=O)CC3)c2sccc2n1 [Example 75, N^2-(2-methoxy-4-(4-(4-methylpiperazin-1-yl)piperidin-1-yl)phenyl)-N^4-(1-(methylsulfonyl)indolin-7-yl)thieno[3,2-d]pyrimidine-2,4-diamine] | 1200 nM | 349 nM | 459 nM | 8.8 nM | 148 nM | 8.6 nM
COc1cc(N2CCC(N3CCN(C)CC3)CC2)c(C)cc1Nc1ncc(Br)c(Nc2cccc3c2N(S(C)(=O)=O)CC3)n1 [Example 40, 5-bromo-N^2-(2-methoxy-5-methyl-4-(4-(4-methylpiperazin-1-yl)piperidin-1-yl)phenyl)-N^4-(1-(methylsulfonyl)indolin-7-yl)pyrimidine-2,4-diamine] | 230 nM | 1.56 nM | 4.91 nM | 0.36 nM | 0.78 nM | 0.21 nM
COc1cc(N2CCC(N3CCN(C)CC3)CC2)ccc1Nc1ncc(Cl)c(Nc2cccc3c2N(S(=O)(=O)C2CC2)CC3)n1 [Example 7, 5-chloro-N^4-(1-(cyclopropylsulfonyl)indolin-7-yl)-N^2-(2-methoxy-4-(4-(4-methylpiperazin-1-yl)piperidin-1-yl)phenyl)pyrimidine-2,4-diamine] | 457 nM | 53.9 nM | 81.6 nM | 0.57 nM | 1.8 nM | 0.61 nM
COc1cc(N2CCC(N(C)C)CC2)c(C)cc1Nc1nc(Nc2cccc3c2N(S(C)(=O)=O)CC3)c2cc[nH]c2n1 [Example 103, N^2-(4-(4-(dimethylamino)piperidin-1-yl)-2-methoxy-5-methylphenyl)-N^4-(1-(methylsulfonyl)indolin-7-yl)-7H-pyrrolo[2,3-d]pyrimidine-2,4-diamine] | 1690 nM | 25.6 nM | 76.7 nM | 0.78 nM | 28 nM | 0.47 nM
COc1cc(N2CCC(N3CCN(C)CC3)CC2)c(C)cc1Nc1ncc(Cl)c(Nc2cccc3c2N(S(C)(=O)=O)CC3)n1 [Example 39, 5-chloro-N^2-(2-methoxy-5-methyl-4-(4-(4-methylpiperazin-1-yl)piperidin-1-yl)phenyl)-N^4-(1-(methylsulfonyl)indolin-7-yl)pyrimidine-2,4-diamine] | 500 nM | 4.54 nM | 11.4 nM | 0.35 nM | 0.36 nM | 0.28 nM
COc1cc(N2CCC(N3CCN(C)CC3)CC2)ccc1Nc1ncc(Cl)c(Nc2ccc(C)c3c2N(S(C)(=O)=O)CC3)n1 [Example 4, 5-chloro-N^2-(2-methoxy-4-(4-(4-methylpiperazin-1-yl)piperidin-1-yl)phenyl)-N^4-(4-methyl-1-(methylsulfonyl)indolin-7-yl)pyrimidine-2,4-diamine] | 466 nM | 12 nM | 57.2 nM | 0.17 nM | 0.49 nM | 0.27 nM
